Activity calls are given as the source filed them.
Assays:
[1] = molecular target: T1, Polyadenylate-binding protein 1 (Homo sapiens, UniProt P11940); assay: PABP1 MLLE–PAM2 interaction inhibitors, dose response, miRNA deadenylation inhibitor project, biochemical, fluorescence polarization, Cy5-PAM2 peptide, secondary (AID 602260); assay type: functional; details: read-out: IC50_Mean
[2] = molecular target: T1, Polyadenylate-binding protein 1; assay: PABP1 MLLE–PAM2 binding inhibitor potency, dose response, biochemical, fluorescence polarization, FITC-PAM2 peptide (AID 602259); assay type: functional; details: read-out: IC50_Mean
[3] = NIH-3T3 fibroblast cytotoxicity, dose response, cytotoxicity control, cell-based, fluorescence, Alamar Blue, secondary assay (AID 2327); assay type: functional;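 note: NIH-3T3 mouse fibroblasts cultured with fluconazole at 8 µg/mL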
[4] = C. albicans growth with fluconazole, confirmation, fluorescence, retest (AID 2467); assay type: functional, cell-based
[5] = tested on: HeLa; assay: HeLa cell cytotoxicity, dose response, cytotoxicity control for MITF activator project, CellTiter-Glo luminescence, cherry-pick samples (AID 540259); assay type: functional, cell-based; details: Homo sapiens
[6] = P. falciparum late gametocyte killing, dose response, luminescence (AID 1117278); assay type: functional, cell-based;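 note: gametocytes exposed to compound for 24 hours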
[7] = Jurkat T cell cytotoxicity, dose response, cytotoxicity control for P. falciparum gametocyte viability project, luminescence (AID 1117277); assay type: functional, cell-based;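 note: potency reflects loss of cellular ATP meaning fewer viable cells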
[8] = molecular target: T2, Calpain-2 catalytic subunit (Sus scrofa, UniProt P43367); assay: pig calpain II inhibitor potency, dose response, biochemical, fluorogenic peptide substrate (AID 1420); assay type: functional
T2 sequence (P43367 whole entry): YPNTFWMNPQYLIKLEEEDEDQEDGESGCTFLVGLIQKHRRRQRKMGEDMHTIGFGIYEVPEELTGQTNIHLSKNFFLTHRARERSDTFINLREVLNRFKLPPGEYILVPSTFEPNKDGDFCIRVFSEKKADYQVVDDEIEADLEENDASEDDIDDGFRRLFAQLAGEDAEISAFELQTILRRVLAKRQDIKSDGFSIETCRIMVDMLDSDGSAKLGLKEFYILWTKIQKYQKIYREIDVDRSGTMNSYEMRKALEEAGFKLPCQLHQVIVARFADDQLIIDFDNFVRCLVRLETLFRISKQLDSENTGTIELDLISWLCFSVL

[9] = cells; assay type: functional
[10] = Luminescence Cell-Based Dose Confirmation HTS to Identify Activators of 5'UTR Stem-Loop Driven Alpha-Synuclein mRNA Translation in H4 Neuroglioblastoma Cells. [Related pubchem assays: 1829 (Project Summary), 1814 (Primary HTS)]; assay type: functional
[11] = Luminescence Cell-Based Dose Response HTS to Identify Activators of Luciferase Translation or Activity in H4 […] Cells. [Related pubchem assays: 1829 (Project Summary), 1814 (Primary HTS)]; assay type: functional
[12] = tested on: H4; assay: Luminescence Cell-Based Dose Response HTS to Identify Activators of 5'UTR Stem-Loop Driven Prion Protein mRNA Translation in H4 Neuroglioblastoma Cells. [Related pubchem assays: 1829 (Project Summary), 1814 (Primary HTS)]; assay type: functional; details: Homo sapiens
[13] = molecular target: Nonstructural protein 1 (Influenza A virus, UniProt Q194T2); assay type: functional, Influenza A virus (A/California/07/2009(H1N1))
[14] = molecular target: T3, Protein skinhead-1 (Caenorhabditis elegans, UniProt P34707); assay type: functional
T3 sequence (P34707 whole entry): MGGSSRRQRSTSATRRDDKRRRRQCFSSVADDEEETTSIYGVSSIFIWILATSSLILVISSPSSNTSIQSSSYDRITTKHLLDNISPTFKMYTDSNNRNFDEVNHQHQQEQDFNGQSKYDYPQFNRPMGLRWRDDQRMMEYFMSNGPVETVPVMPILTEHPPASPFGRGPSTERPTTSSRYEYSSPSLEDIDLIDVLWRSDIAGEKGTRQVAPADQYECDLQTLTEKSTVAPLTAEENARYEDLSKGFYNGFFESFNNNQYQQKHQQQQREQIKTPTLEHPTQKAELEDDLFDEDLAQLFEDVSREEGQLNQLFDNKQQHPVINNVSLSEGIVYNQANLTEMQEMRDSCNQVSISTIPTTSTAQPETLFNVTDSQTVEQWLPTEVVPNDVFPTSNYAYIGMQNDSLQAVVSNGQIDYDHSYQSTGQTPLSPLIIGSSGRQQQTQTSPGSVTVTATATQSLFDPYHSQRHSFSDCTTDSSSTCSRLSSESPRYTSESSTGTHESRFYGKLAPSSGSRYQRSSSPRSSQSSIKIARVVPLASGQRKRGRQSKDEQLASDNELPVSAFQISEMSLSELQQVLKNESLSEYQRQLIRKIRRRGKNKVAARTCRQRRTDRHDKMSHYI

[15] = growth suppression of PTEN-null colon cells, dose response, cell-based, HCT116 PTEN knockout (AID 1047); assay type: functional;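 note: HCT116 colon tumor cells with PTEN knocked out; cells exposed to compound for 60 hours before readout; potency for loss of cell viability measured by luminescence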
[16] = growth suppression of beta-catenin-knockout colon cells, dose response, cell-based, HCT116, human colon tumor (AID 1045); assay type: functional;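 note: HCT116 colon tumor cells with beta catenin knocked out; cells exposed to compound for 60 hours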
[17] = A549 cell cytotoxicity, dose response, cytotoxicity control, plate reader, cherry-pick, antagonist series (AID 743412); assay type: functional, cell-based
[18] = HepG2 cell cytotoxicity, dose response, cytotoxicity control, plate reader, cherry-pick, antagonist series (AID 743416); assay type: functional, cell-based
[19] = LGR2 antagonists, dose response, cell-based, HEK293, CRE-luciferase reporter, cherry pick, set 2 (AID 743343); assay type: functional;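 note: transfected cells were stimulated with diluted bursicon conditioned medium after compound addition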
[20] = MC4R antagonists, dose response, counter-screen for LGR2 antagonist project, cell-based, plate reader, cherry pick (AID 743444); assay type: functional;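 note: transfected HEK 293 cells stimulated with alpha-MSH peptide; potency of inhibitors of the alpha-MSH evoked signal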
[21] = tested on: H9c2; assay: cells; assay type: functional, cell-based; details: Rattus norvegicus, H9c2, Myocardium;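 note: confirmatory concentration-response retest of ultra-high-throughput screening hits for modulation of myocardial damage; cell death induced by hydrogen peroxide oxidative stress; compound pretreatment for 60 min then peroxide exposure for 2 h; potency is for protecting the cells against peroxide damage rather than for killing them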
[22] = molecular target: Paired box protein Pax-8 (Homo sapiens, UniProt Q06710); assay: inhibitors of PAX8-driven TPO luciferase reporter, dose response, RMG-I cells, cherry-pick (AID 687027); assay type: functional, cell-based;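 note: luciferase reporter driven by Pax8 target thyroperoxidase promoter measured by SteadyGlo luminescence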
[23] = inhibitors of HIV Env-driven cell fusion, dose response, cherry-pick (AID 652057); assay type: functional, cell-based
[24] = inhibitors of clade B AD8 Env fusion, dose response, cell-based, cherry-pick (AID 652062); assay type: functional;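 note: luciferase signal from cell-cell fusion driven by HIV-1 clade B AD8 Env; potency is for inhibitors of fusion seen as a drop in luminescence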
[25] = molecular target: Luciferin 4-monooxygenase (Photinus pyralis, UniProt P08659); assay: firefly luciferase enzyme inhibitors, dose response, biochemical, luminescence (AID 1891)
[26] = Luminescence Cell-Based Dose Confirmation HTS to Identify Inhibitors of Platelet Dense Granule Release. [Related pubchem assays: 1663 (Primary HTS), 1678 (Summary of Project)]; assay type: functional
[27] = molecular target: T4, Rac GTPase-activating protein 1 (Homo sapiens, UniProt Q9H0H5); assay: MgcRacGAP GTPase-activating activity inhibitors, confirmation, biochemical, ADP Hunter fluorescence, primary and confirmatory (AID 624330); assay type: functional
T4 sequence (Q9H0H5 whole entry): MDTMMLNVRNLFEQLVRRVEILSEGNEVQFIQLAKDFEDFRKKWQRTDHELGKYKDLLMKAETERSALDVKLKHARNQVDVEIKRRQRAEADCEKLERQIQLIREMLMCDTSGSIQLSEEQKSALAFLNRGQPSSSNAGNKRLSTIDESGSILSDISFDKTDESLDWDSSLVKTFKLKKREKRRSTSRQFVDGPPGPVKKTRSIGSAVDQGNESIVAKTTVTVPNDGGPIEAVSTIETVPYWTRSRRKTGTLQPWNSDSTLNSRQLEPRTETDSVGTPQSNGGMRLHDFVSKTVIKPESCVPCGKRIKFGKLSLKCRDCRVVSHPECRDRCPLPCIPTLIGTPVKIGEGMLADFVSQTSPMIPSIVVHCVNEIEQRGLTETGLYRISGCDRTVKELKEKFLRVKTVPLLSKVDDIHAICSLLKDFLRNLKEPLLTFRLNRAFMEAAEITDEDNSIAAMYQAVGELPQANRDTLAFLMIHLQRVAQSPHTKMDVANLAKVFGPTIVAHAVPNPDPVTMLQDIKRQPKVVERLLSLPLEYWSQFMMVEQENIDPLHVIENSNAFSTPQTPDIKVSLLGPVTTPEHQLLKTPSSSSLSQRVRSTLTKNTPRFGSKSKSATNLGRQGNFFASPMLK

[28] = Luminescence Cell-Based Dose Retest to Confirm Inhibitors of Cancer Stem Cells. [Related pubchem assays (depositor defined):AID2717, AID2721]; assay type: functional; details: Homo sapiens
[29] = molecular target: FAD-linked sulfhydryl oxidase ALR (Homo sapiens, UniProt P55789); assay: inhibitors of human ALR sulfhydryl oxidase, dose response, biochemical, H2O2 detection, luminescence, cherry-pick (AID 493248)
[30] = P. falciparum 3D7-ScDHODH growth inhibitors, dose response, SYBR Green, dry powder samples (AID 1159570); assay type: functional, cell-based;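 note: parasite growth measured after 72 hours of compound exposure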
[31] = P. falciparum Dd2 growth inhibitors, dose response, SYBR Green, cherry-picked samples (AID 1159567); assay type: functional, cell-based
[32] = P. falciparum Dd2 growth inhibitors, dose response, SYBR Green, dry powder samples (AID 1159566); assay type: functional, cell-based;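 note: potency for growth inhibition with lower SYBR green DNA signal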
[33] = P. falciparum ATP4 D1247Y mutant growth inhibitors, dose response, NITD609-resistant line, SYBR Green, dry powder (AID 1159571); assay type: functional, cell-based;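 note: parasites synchronized at ring stage by sorbitol before testing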

T1 sequence (P11940 whole entry): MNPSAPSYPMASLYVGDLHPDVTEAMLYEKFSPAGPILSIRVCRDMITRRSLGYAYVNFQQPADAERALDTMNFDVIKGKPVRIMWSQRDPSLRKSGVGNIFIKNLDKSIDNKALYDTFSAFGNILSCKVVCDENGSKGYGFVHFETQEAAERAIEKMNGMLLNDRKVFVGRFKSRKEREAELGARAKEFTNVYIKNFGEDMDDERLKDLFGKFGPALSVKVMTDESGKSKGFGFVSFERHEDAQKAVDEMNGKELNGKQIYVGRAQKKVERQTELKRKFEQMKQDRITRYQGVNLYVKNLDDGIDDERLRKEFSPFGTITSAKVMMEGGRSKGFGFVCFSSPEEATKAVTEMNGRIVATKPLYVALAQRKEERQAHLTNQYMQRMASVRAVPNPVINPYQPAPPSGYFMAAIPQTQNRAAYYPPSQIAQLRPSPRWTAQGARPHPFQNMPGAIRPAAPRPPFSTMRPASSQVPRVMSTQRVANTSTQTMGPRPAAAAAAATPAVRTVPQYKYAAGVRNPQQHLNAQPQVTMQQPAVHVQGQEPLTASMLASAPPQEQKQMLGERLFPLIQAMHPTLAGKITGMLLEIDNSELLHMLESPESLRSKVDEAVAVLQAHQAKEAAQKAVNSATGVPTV
Chain of Nonstructural protein 1 (Q194T2 whole entry): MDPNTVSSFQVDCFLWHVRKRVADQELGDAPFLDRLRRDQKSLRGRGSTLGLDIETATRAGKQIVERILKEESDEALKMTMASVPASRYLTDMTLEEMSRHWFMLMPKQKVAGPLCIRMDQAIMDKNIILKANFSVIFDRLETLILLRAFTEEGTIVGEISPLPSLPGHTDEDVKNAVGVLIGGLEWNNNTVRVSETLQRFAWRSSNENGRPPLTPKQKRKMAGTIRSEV
Chain of Paired box protein Pax-8 (Q06710 whole entry, the tested form may be a part): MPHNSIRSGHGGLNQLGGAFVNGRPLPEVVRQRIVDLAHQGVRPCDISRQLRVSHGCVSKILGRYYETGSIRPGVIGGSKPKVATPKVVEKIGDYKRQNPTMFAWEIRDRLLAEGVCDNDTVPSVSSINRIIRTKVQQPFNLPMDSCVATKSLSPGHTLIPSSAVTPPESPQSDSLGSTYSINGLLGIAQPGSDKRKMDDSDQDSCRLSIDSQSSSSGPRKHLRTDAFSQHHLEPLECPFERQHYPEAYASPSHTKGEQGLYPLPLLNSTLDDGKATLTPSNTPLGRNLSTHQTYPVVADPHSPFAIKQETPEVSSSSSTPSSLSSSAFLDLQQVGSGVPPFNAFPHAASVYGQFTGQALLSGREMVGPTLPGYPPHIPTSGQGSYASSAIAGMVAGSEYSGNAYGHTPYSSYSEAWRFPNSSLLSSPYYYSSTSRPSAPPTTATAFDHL
Chain of FAD-linked sulfhydryl oxidase ALR (P55789 whole entry): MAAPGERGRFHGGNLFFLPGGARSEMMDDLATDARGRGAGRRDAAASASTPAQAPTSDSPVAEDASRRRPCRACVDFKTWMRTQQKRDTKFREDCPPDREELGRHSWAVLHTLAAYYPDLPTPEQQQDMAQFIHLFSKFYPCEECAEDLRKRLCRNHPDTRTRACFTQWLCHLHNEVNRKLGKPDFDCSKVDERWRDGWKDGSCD
Chain of Luciferin 4-monooxygenase (P08659 whole entry): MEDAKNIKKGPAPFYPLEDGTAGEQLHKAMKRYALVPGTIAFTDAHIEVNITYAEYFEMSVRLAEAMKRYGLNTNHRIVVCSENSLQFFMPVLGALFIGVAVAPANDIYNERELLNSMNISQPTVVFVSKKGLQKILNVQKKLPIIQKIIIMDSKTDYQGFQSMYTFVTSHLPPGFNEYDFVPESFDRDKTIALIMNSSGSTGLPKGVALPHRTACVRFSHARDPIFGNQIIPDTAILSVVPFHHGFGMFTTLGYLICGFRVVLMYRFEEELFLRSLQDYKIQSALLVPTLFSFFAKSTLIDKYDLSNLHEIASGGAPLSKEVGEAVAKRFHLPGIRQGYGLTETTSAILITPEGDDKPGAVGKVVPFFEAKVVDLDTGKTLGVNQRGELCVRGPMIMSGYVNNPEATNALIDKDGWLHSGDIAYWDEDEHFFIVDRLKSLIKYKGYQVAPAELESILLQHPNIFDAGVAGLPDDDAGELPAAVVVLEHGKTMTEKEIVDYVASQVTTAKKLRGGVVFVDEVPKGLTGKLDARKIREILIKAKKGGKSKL

O=C(O)c1cccc(NC(=S)NC(=O)c2cccc(OCc3ccccc3)c2)c1
IC50 [1]: > 66 µM (inactive)
IC50 [2]: > 66 µM (inactive)

Cc1ccc(Nc2nc(Cl)nc(NC(C)(C)C)n2)cc1
EC50 [3]: > 160 µM (inactive)
EC50 [4]: 1.98 µM (active)
AC50 [5]: 159 µM (active)

COCC(C)n1c(C)cc(C(=O)COC(=O)c2ccc3c(c2)NC(=O)CS3)c1C (stereo not drawn)
IC50 [1]: > 66 µM (inactive)
IC50 [2]: > 66 µM (inactive)

Cc1cccc(NC(=O)c2cc3n(n2)C(C(F)(F)F)CC(C2CC2)N3)c1C (stereo not drawn)
IC50 [6]: > 109 µM (inactive)
IC50 [7]: > 83.3 µM (inactive)

COc1ccc(OC)c(C2=NOC(C(=O)Nc3cc(C)on3)C2)c1 (stereo not drawn)
IC50 [6]: > 109 µM (inactive)
IC50 [7]: > 83.4 µM (inactive)

Cc1ccc(C(=O)Oc2cccc(-n3cnnn3)c2)cc1
IC50 [8]: 10.5 µM (not active)
IC50 [9]: 13.7 µM (active)
AC50 [5]: > 350 µM (inactive)

Cc1cccn2cc(-c3ccc4c(c3)NC(=O)CO4)nc12
EC50 [10]: 7.24 µM (active)
EC50 [11]: 34.6 µM (active)
EC50 [12]: 7 µM (active)
IC50 [6]: > 109 µM (inactive)
IC50 [7]: > 83.3 µM (inactive)

CCc1c(C)sc(NC(=O)c2cc(C3CC3)on2)c1C#N
IC50 [1]: > 66 µM (inactive)
IC50 [2]: > 66 µM (inactive)

CC(=O)Nc1c(Nc2ccccc2)c2ccccc2oc1=O
IC50 [1]: > 66 µM (inactive)
IC50 [2]: > 66 µM (inactive)

CCOC(=O)C1=NN(c2ccccc2)C(=O)/C1=C\c1ccc(N(C)C)cc1
IC50 [13]: > 100 µM (active)

CCCCCc1cc(=O)oc2c(C(CCN(CC)CC)c3ccc(N(C)C)cc3)c(OC)cc(OC)c12 (stereo not drawn)
IC50 [13]: 9.17 µM (active)

CC(=O)N=C(N)Nc1nc(=O)c2ccccc2s1
AC50 [5]: 69.2 µM (active)

Nc1cc(Nc2ccccc2)c2nonc2c1[N+](=O)[O-]
IC50 [1]: > 66 µM (inactive)
IC50 [2]: > 66 µM (inactive)

C(=C\c1nnc(-c2cccs2)o1)/c1ccccc1
AC50 [5]: 50.6 µM (active)
IC50 [14]: 11.9 µM (active)

c1cncc(-c2nnc(-c3cccnc3)nn2)c1
EC50 [15]: 9.23 µM (active)
EC50 [16]: 9.6 µM (active)
IC50 [1]: > 66 µM (inactive)
IC50 [2]: > 66 µM (inactive)

CCC(Oc1ccccc1)C(=O)NCc1ccc(S(N)(=O)=O)cc1 (stereo not drawn)
IC50 [6]: > 109 µM (inactive)
IC50 [7]: > 83.3 µM (inactive)

O=C(CCc1nnc(CCCCc2ccccc2)o1)N1CCCC(O)C1 (stereo not drawn)
AC50 [17]: 0.513 µM (active)
AC50 [18]: > 52 µM (inactive)
AC50 [19]: 3.63 µM (active)
AC50 [20]: 3.46 µM (active)

O=C1OC(c2ccccc2)C2(CCCC2)C(=O)C12CCCC2 (stereo not drawn)
IC50 [6]: > 109 µM (inactive)
IC50 [7]: > 83.3 µM (inactive)

COc1cc(-c2cnc3c(NC=O)cc(-c4cccc(NC(C)=O)c4)cn23)cc(OC)c1OC
IC50 [21]: > 79 µM (inactive)
AC50 [22]: 2.88 µM (active)

C[C@@H]1CCCCO[C@@H](CN(C)Cc2ccc(C(F)(F)F)cc2)[C@H](C)CN([C@H](C)CO)C(=O)c2cc(NS(=O)(=O)c3ccc(Cl)cc3)ccc2O1
AC50 [22]: 8.48 µM (active)

Cc1ccc(-c2ccc3c(c2)O[C@H](CN(C)Cc2ccncc2)[C@@H](C)CN([C@@H](C)CO)S3(=O)=O)cc1
AC50 [23]: 12.8 µM (active)
AC50 [24]: 26.5 µM (active)

N#C[C@@H]1[C@H](c2ccc(C#Cc3cccc(F)c3)cc2)[C@@H](CO)N1C(=O)C1CC1
AC50 [17]: 24.4 µM (active)
AC50 [18]: 36.7 µM (active)
AC50 [19]: 61.3 µM (active)

C[C@H]1CN([C@@H](C)CO)C(=O)c2cc(NC(=O)Nc3ccccc3)ccc2O[C@H]1CN(C)Cc1ccc(-c2ccccc2)cc1
AC50 [17]: 24.2 µM (active)
AC50 [18]: > 52 µM (inactive)
AC50 [20]: 39.4 µM (active)

O=S1(=O)N=C(N/N=C/c2ccccn2)c2ccccc21
IC50 [13]: 3.27 µM (active)

O=C(Cn1cncn1)N/N=C/c1ccccc1O
IC50 [13]: 22.1 µM (active)

Oc1ccc(/C=N/Nc2cccc(Cl)n2)c(O)c1
EC50 [25]: 1.66 µM (active)
EC50 [26]: 1.39 µM (active)
AC50 [5]: 316 µM (active)
IC50 [27]: 29 µM (active)

COc1cccc(/C=N/N2C(=O)CSC2=S)c1O
IC50 [13]: 2.19 µM (active)

Clc1ccc(N/N=C/c2cccnc2)cc1
AC50 [28]: 4.65 µM (active)
AC50 [29]: 0.426 µM (active)
AC50 [5]: 41.7 µM (active)

CCNC(=O)C(=O)N/N=C/c1cc([N+](=O)[O-])ccc1O
IC50 [13]: 2.44 µM (active)

COc1ccc2c3c([nH]c2c1)[C@H](CO)NCC31CCN(C(=O)Nc2ccc3c(c2)OCO3)CC1
AC50 [30]: 1.41 µM (active)
AC50 [31]: 0.914 µM (active)
AC50 [32]: 0.49 µM (active)
AC50 [33]: 0.949 µM (active)

— ChEMBL document CHEMBL1201862, “PubChem BioAssay data set” (2004)
